In patent publication US20020042393A1, “Excipient” (priority 1998, published 2002):

Assays:
[1] = Whiteness of powder (color analyzer); type: physicochemical; conditions: excipient powder
Description: (§1) For powder of trehalose or a pharmaceutical composition containing trehalose, values of L, a and b were measured with a color analyzer (TC-1800MKII, mfd. by Tokyo Denshoku Co., Ltd.), and the whiteness of the trehalose or pharmaceutical composition was calculated by the following equation: […]

[2] = Tablet hardness (Schleuniger hardness meter); type: physicochemical; conditions: for Tablet hardness at a compression pressure of 1000 kg/cm^2: phenacetin granules
[3] = Average particle size (sieving, 50% cumulative weight); type: physicochemical; conditions: excipient powder
Description: Five grams of trehalose was sifted through screens having screen openings of 500 μm, 300 μm and 250 μm, respectively, and then sifted with Air Jet Sieve by using screens having screen openings of 150 μm, 75 μm, 45 μm, 38 μm and 32 μm, respectively. The oversize particle weight percentage [%] was calculated for each screen, and the average particle size is expressed as a particle size corresponding to a cumulative weight percentage of 50%.

[4] = Apparent specific volume; type: physicochemical; conditions: excipient powder
Description: The whole of 10 g of trehalose powder was gently poured into a 100-ml measuring cylinder without making an impact (in this case, a cylinder having an outside diameter smaller than the inside diameter of the measuring cylinder was placed in the measuring cylinder, and it was slowly lifted after pouring the trehalose), and the apparent specific volume was expressed as a value obtained by dividing the read volume by the weight of the trehalose.

[5] = Wet granulation of phenacetin mixture with HPC binder solution: granule size and yield
[6] = Dissolution test (13th revised Japanese Pharmacopoeia) of phenacetin granules; type: physicochemical
Description: The wet granules obtained in Example 6 were subjected to a dissolution test according to the dissolution test prescribed in the 13th revised Japanese Pharmacopoeia. The first liquid listed in the Japanese Pharmacopoeia was used as a test liquid, and the drug dissolution rate after 5 minutes was measured. The dissolution rate was calculated by taking the total amount of the drug contained in the granules as 100%. […] In the case of the trehaloses J and K, the dissolution rate after 5 minutes was as very high as 80%.
The granules prepared from each of lactose and Mannit P in Comparative Example 4 were subjected to a dissolution test according to the dissolution test prescribed in the 13th revised Japanese Pharmacopoeia. The first liquid listed in the Japanese Pharmacopoeia was used as a test liquid, and the drug dissolution rate after 5 minutes was measured. The drug dissolution rate was calculated by taking the total amount of the drug contained in the granules as 100%. […] In the case of lactose and Mannit P, the dissolution rate after 5 minutes was lower than in the case of trehaloses J and K.

[7] = Proportion of particles of 75 μm or more (Air Jet Sieve); type: physicochemical; conditions: excipient powder
Description: Five grams of trehalose was weighed onto a screen having a screen opening of 75 μm, and sifted with Air Jet Sieve (Model 200LS, mfd. by ALPINE) for 5 minutes, and the weight percentage of the weight of particles remaining on the screen based on the total weight of particles was calculated as the proportion of particles of 75 μm or more.

[8] = Angle of repose (Sugiwara's instrument); type: physicochemical; conditions: excipient powder
Description: Measured by means of a Sugiwara's instrument for measuring angle of repose (Yakuzaigaku 27, p. 260, 1965).

[9] = Water content (Karl Fisher) of tablets before and after storage; type: physicochemical; conditions: tablets compressed at 500 kg/cm^2
Description: Determined as a value obtained by measuring about 0.1 g of trehalose and determining its water content by the Karl Fisher method.
One hundred grams of commercial “Trehaose” (available from Hayashibara Biochemical Laboratories, Inc.) was dissolved in water to a concentration of about 35 wt %, and the resulting solution was concentrated under reduced pressure with heating at 60° C. so as to have a concentration of about 75 wt %, and allowed to stand at room temperature to precipitate crystals, which were washed with 50 ml of water. Glucose was removed by carrying out the above purification procedure once or twice, to increase the trehalose purity. Trehalose A was obtained by carrying out the purification procedure twice to obtain crystals, drying the crystals, grinding the dried crystals with a bantam mill (number of revolutions 15,000 rpm, feed rate 5 kg/hr, and screen opening 2.0 mmφ), and then sifting the ground crystals through a […]. Trehalose B was obtained by carrying out the purification procedure once to obtain crystals, drying the crystals, grinding the dried crystals with a bantam mill (number of revolutions 10,000 rpm, feed rate 5 kg/hr, and screen opening 2.00 mmφ), and then sifting the ground crystals through a 350-μm screen. Trehalose C was obtained by carrying out the purification procedure once to obtain crystals, drying the crystals, grinding the dried crystals with a bantam mill (number of revolutions 8,000 rpm, feed rate 5 kg/hr, and screen opening 2.0 mmφ), and then sifting the ground crystals through a 350-μm screen. […] Each of trehaloses A to C was compressed into tablets at a compression pressure of 500 kg/cm^2, and the tablet hardness immediately after the compression and the tablet hardness after standing for 3 days in an atmosphere of 40° C. and 75% RH after the compression were compared.
“Trehaose” (available from Hayashibara Bioscience Laboratories Co., Ltd.) was purified once by the method described in Example 1 to obtain crystals, which were dried, ground with a bantam mill (number of revolutions 12,000 rpm, feed rate 5 kg/hr, and screen opening 2.0 mmφ) and then dried at 105° C. for 4 hours to obtain trehalose anhydrous crystals. These crystals were compressed into tablets at a compression pressure of 500 kg/cm^2, and the tablet hardnesses of the tablets were compared in the same manner as in Example 1.

[10] = Consolidation of powder during storage; type: physicochemical; conditions: compared with trehaloses B and C
[11] = Disintegration time according to Japanese Pharmacopoeia; type: physicochemical
Description: The disintegration time of each of six molded products was measured by the use of ion-exchanged water according to the disintegration time measuring method prescribed in the 13th revised Japanese Pharmacopoeia, and the average of measured values was calculated.

[12] = Change in whiteness of excipient mixed with drug at 40° C. and 75% RH (reactivity); type: physicochemical; conditions: listed as A
Description: as §1
One gram of each of the trehaloses obtained in Example 1 and 1 g of isoniazid were mixed and then allowed to stand in an atmosphere of 40° C. and 75% RH, and the change in whiteness of the trehalose was observed. On the other hand, 1 g of each of the trehaloses obtained in Example 1 and 1 g of aminophyline were mixed and then allowed to stand in an atmosphere of 40° C. and 75% RH, and the change in whiteness of the trehalose was observed.
One gram of 100-mesh lactose (available from De Melkindustrie Veghel bv) or 1 g of Mannit S (available from Tohwa Kasei Co., Ltd.) and 1 g of aminophyline were mixed and then allowed to stand in an atmosphere of 40° C. and 75% RH, and the change in whiteness of the lactose or Mannit S was observed.
As a starting material. […]

[13] = phenacetin granules, binding solution 180 g
[14] = phenacetin granules, binding solution 240 g
[15] = Example 10: as Example 9 but molded at 60 kg/cm^2, listed as A
[16] = ascorbic acid tablets (Example 12), compression pressure 500 kg/cm^2
[17] = ascorbic acid tablets (Example 12), compression pressure 800 kg/cm^2
[18] = phenacetin 50/excipient 30/corn starch 10/microcrystalline cellulose 10, binding solution 100 g
[19] = phenacetin granules, binding solution 120 g
[20] = phenacetin granules, binding solution 160 g

OC[C@H]1O[C@@H](O[C@H]2[C@H](O)[C@@H](O)C(O)O[C@@H]2CO)[C@H](O)[C@@H](O)[C@H]1O (some centres unmarked) [200M lactose, lactose, reference compound]
Whiteness [1]: 95%
Tablet hardness at a compression pressure of 1000 kg/cm^2 ([2]; binding solution 180 g): 2.5 kgf
Tablet hardness at a compression pressure of 1000 kg/cm^2 ([2]; binding solution 220 g): 3.0 kgf
Tablet hardness at a compression pressure of 1000 kg/cm^2 ([2]; binding solution 240 g): 3.7 kgf
Average particle size [3]: 60 μm
Apparent specific volume [4]: 2.1 cm^3/g
Average particle size of granules [5, 13]: 91 μm
Average particle size of granules ([5]; phenacetin granules, binding solution 220 g): 150 μm
Average particle size of granules [5, 14]: 220 μm
Drug dissolution rate after 5 min. ([6]; binding solution 240, first liquid of Japanese Pharmacopoeia): 60%
Proportion of particles of 75 μm or more [7]: 15%
Angle of repose [8]: 45 °

OC[C@@H](O)[C@@H](O)[C@H](O)[C@H](O)CO [Mannit P, reference compound]
Whiteness [1]: 96%
Tablet hardness at a compression pressure of 1000 kg/cm^2 ([2]; binding solution 180 g): 3.9 kgf
Tablet hardness at a compression pressure of 1000 kg/cm^2 ([2]; binding solution 200 g): 3.0 kgf
Tablet hardness at a compression pressure of 1000 kg/cm^2 ([2]; binding solution 240 g): 3.1 kgf
Average particle size [3]: 47 μm
Apparent specific volume [4]: 2.1 cm^3/g
Average particle size of granules [5, 13]: 106 μm
Average particle size of granules ([5]; phenacetin granules, binding solution 200 g): 144 μm
Average particle size of granules [5, 14]: 313 μm
Drug dissolution rate after 5 min. ([6]; binding solution 200, first liquid of Japanese Pharmacopoeia): 70%
Proportion of particles of 75 μm or more [7]: 20%
Angle of repose [8]: 45 °

OC[C@H]1O[C@H](O[C@H]2O[C@H](CO)[C@@H](O)[C@H](O)[C@H]2O)[C@H](O)[C@@H](O)[C@@H]1O [Trehalose A, trehalose]
Whiteness ([1]; listed as A): 98%
Tablet hardness ([2]; Example 8: molded product of trehalose only, molded at 30 kg/cm^2, dried overnight at 40° C., listed as A): 7.5 kg
Tablet hardness [2, 15]: 10.2 kg
Tablet hardness [2, 16]: 4.0 kgf
Tablet hardness [2, 17]: 7.0 kgf
Tablet hardness ([2]; process of Example 9: 950 g excipient + 50 g phenylpropanolamine hydrochloride, molded at 30 kg/cm^2, listed as A): 7.0 kg
Tablet hardness ([2]; tablets compressed at 500 kg/cm^2, 0 day (immediately after compression), listed as A): 2.6 kgf
Tablet hardness ([2]; tablets compressed at 500 kg/cm^2, 3 days at 40° C. and 75% RH, listed as A): 2.5 kgf
Water content ([9]; 0 day, listed as A): 9.7%
Water content ([9]; 3 days at 40° C. and 75% RH): 9.8%
Average particle size ([3]; listed as A): 35 μm
Apparent specific volume ([4]; listed as A): 3.1 cm^3/g
Consolidation during storage [10]: consolidated during storage
Proportion of particles of 75 μm or more ([7]; listed as A): 15%
Angle of repose ([8]; listed as A): 48 °
Disintegration time according to Japanese Pharmacopoeia ([11]; Example 8: molded product of trehalose only, 30 kg/cm^2, listed as A): 15 s
Disintegration time according to Japanese Pharmacopoeia [11, 15]: 52 s
Disintegration time according to Japanese Pharmacopoeia [11, 16]: 17 s
Disintegration time according to Japanese Pharmacopoeia [11, 17]: 25 s
Disintegration time according to Japanese Pharmacopoeia ([11]; process of Example 9: 950 g excipient + 50 g phenylpropanolamine hydrochloride, 30 kg/cm^2, listed as A): 16 s
Whiteness ([12]; 1 g excipient + 1 g aminophyline, 0 day): 100%
Whiteness ([12]; 1 g excipient + 1 g aminophyline, 40° C. and 75% RH, 1 month): 98%
Whiteness ([12]; 1 g excipient + 1 g isoniazid, 0 day): 98%
Whiteness ([12]; 1 g excipient + 1 g isoniazid, 40° C. and 75% RH, 1 month): 97%

OC[C@H]1O[C@H](O[C@H]2O[C@H](CO)[C@@H](O)[C@H](O)[C@H]2O)[C@H](O)[C@@H](O)[C@@H]1O [Trehalose J, trehalose]
Whiteness [1]: 96%
Tablet hardness at a compression pressure of 1000 kg/cm^2 ([2]; binding solution 100 g): 5.1 kgf
Tablet hardness at a compression pressure of 1000 kg/cm^2 ([2]; binding solution 120 g, listed as J): 4.7 kgf
Tablet hardness at a compression pressure of 1000 kg/cm^2 ([2]; binding solution 160 g): 3.0 kgf
Average particle size [3]: 60 μm
Apparent specific volume [4]: 2.0 cm^3/g
Average particle size of granules [5, 18]: 110 μm
Average particle size of granules [5, 19]: 130 μm
Average particle size of granules ([5]; phenacetin granules, binding solution 120 g, listed as J): 130 μm
Average particle size of granules [5, 20]: 270 μm
Drug dissolution rate after 5 min. ([6]; binding solution 120, first liquid of Japanese Pharmacopoeia): 80%
Proportion of particles of 75 μm or more [7]: 40%
Angle of repose [8]: 41 °

OC[C@H]1O[C@H](O[C@H]2O[C@H](CO)[C@@H](O)[C@H](O)[C@H]2O)[C@H](O)[C@@H](O)[C@@H]1O [Trehalose K, trehalose]
Whiteness [1]: 97%
Tablet hardness at a compression pressure of 1000 kg/cm^2 ([2]; binding solution 100 g): 5.0 kgf
Tablet hardness at a compression pressure of 1000 kg/cm^2 ([2]; binding solution 120 g): 4.5 kgf
Tablet hardness at a compression pressure of 1000 kg/cm^2 ([2]; binding solution 160 g, listed as K): 2.9 kgf
Average particle size [3]: 50 μm
Apparent specific volume [4]: 2.1 cm^3/g
Average particle size of granules [5, 18]: 120 μm
Average particle size of granules [5, 19]: 140 μm
Average particle size of granules [5, 20]: 180 μm
Average particle size of granules ([5]; phenacetin granules, binding solution 160 g, listed as K): 180 μm
Drug dissolution rate after 5 min. ([6]; binding solution 160, first liquid of Japanese Pharmacopoeia): 80%
Proportion of particles of 75 μm or more [7]: 21%
Angle of repose [8]: 42 °
